Test [1] concerns the target Human platelet cyclic AMP phosphodiesterase (PDE3) (Homo sapiens, UniProt Q14432). The experiment in a line: In vitro assay for measuring cAMP PDE-3 inhibitory activity. Format: biochemical. The note with it: 10 min at 30° C., n=3. The method, then:
Three assays each were performed for each of five test compound concentrations, the mean of the determinations (n=3) at each concentration was plotted, and IC50 values were determined graphically.

Test [2] deals with T1, human recombinant beta-1 receptors expressed in CHO-REX16 cells (Homo sapiens, UniProt P08588).
T1 construct: expressed in transfected cells; host or cells: CHO-REX16 cells
Put plainly: Radioligand binding for β1-receptor affinity ([125I](−)Iodocyanopindolol). The note with it: at a concentration of 100 nM; read-out: inhibition of β1-adrenergic binding. How it is done: β1-Adrenergic receptor binding was measured in human recombinant beta-1 receptors expressed in CHO-REX16 cells, using [^125I] (−) Iodocyanopindolol (2000 Ci/mmol) as the radioligand, as described in Kalaria et al., J. Neurochem. 53: 1772-81 (1998), and Minneman et al., Mol. Pharmacol. 16: 34-46 (1979). Compounds 17d, 21, 31b, 46a, and 46b each inhibited greater than 25% β1-adrenergic binding at a concentration of 100 nM.

The target in test [3] is T2, human recombinant beta-2 receptors expressed in CHO-WT21 cells (Homo sapiens, UniProt P07550).
T2 construct: expressed in transfected cells; host or cells: CHO-WT21 cells
The experiment in a line: Radioligand binding for β2-receptor affinity ([125I](−)Iodocyanopindolol). To be noted: at a concentration of 100 nM, read-out: inhibition of β1-adrenergic binding (as printed, β2-receptor assay). The method, then: β2-Adrenergic receptor binding was measured in human recombinant beta-2 receptors expressed in CHO-WT21 cells, using [^125I] (−) Iodocyanopindolol (2000 Ci/mmol) as the radioligand, as described in Kalaria et al. (1998) and Minneman et al. (1979), supra. Compounds 17d, 21, 31b, 46a, and 46b each inhibited greater than 25% β1-adrenergic binding at a concentration of 100 nM.

The source of these data is US20080090827A1 (Artesian Therapeutics, Inc., priority 2004, published 2008).

As usually defined, the IC50 is the concentration that gives 50% inhibition. A low value points to inhibition by little substance. What is called inhibition is how much of the control response was suppressed.

T2 sequence (P07550 whole entry): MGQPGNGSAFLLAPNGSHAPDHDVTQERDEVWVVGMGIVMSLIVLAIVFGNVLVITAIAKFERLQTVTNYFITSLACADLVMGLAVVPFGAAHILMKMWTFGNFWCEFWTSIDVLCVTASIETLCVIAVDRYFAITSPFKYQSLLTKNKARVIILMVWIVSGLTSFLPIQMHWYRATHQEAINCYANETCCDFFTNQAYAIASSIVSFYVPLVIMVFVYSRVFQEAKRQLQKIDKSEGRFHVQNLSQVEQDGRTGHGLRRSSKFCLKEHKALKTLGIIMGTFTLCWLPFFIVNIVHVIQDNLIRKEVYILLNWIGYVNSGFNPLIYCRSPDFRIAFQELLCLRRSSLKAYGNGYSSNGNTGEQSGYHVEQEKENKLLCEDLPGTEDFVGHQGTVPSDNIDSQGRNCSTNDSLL
Sequence of Human platelet cyclic AMP phosphodiesterase (PDE3) (Q14432 whole entry): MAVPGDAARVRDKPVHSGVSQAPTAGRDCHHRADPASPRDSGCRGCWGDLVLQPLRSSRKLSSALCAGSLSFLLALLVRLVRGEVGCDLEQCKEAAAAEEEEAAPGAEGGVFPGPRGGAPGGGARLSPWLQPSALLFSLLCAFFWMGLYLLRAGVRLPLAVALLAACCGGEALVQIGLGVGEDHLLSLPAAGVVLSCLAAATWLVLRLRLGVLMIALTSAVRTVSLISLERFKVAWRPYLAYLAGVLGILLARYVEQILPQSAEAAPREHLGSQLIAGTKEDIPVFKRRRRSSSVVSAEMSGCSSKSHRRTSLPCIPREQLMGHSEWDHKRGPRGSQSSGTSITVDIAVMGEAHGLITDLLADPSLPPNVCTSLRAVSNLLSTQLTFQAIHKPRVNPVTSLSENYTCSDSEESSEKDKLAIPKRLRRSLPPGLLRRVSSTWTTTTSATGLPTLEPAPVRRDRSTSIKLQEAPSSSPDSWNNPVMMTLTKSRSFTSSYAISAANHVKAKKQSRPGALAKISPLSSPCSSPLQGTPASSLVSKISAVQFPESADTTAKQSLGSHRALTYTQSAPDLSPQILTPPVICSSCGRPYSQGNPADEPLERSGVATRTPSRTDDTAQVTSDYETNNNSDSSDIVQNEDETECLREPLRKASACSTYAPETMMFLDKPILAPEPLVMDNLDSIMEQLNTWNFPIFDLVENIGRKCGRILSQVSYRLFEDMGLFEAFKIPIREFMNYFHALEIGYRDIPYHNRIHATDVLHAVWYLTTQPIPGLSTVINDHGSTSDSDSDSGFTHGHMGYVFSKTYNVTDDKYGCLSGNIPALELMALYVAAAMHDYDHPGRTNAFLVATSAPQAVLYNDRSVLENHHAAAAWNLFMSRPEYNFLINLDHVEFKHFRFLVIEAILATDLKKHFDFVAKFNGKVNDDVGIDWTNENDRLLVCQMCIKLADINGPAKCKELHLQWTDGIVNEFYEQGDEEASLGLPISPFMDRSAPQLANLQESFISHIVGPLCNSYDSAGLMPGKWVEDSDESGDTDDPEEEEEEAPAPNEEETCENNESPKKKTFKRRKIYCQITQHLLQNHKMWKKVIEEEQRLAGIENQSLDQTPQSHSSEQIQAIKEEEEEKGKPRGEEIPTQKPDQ
T1 sequence (P08588 whole entry): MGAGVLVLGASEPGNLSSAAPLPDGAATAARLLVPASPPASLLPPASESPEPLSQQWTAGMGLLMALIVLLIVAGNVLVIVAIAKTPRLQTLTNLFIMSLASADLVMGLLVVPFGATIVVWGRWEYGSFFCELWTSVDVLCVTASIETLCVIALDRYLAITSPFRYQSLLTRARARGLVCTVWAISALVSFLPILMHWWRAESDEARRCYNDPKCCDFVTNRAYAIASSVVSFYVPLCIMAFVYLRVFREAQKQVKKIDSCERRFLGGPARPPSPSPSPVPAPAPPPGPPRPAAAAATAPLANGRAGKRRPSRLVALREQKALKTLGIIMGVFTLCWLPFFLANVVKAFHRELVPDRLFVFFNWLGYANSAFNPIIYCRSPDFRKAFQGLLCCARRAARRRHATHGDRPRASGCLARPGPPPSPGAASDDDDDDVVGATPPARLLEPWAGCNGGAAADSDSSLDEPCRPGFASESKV

For the compound `CC(C)NC[C@H](O)COc1ccc(CCC(=O)NCCNC(=O)COc2ccc(C3=NNC(=O)CC3)cc2Cl)cc1` [Compound 7], the IC50 in test [1] is < 100 nM.
Same read-out and setting: the same measure for `CC(C)NC[C@H](O)COc1ccc(C(=O)NCCNC(=O)COc2ccc(C3=NNC(=O)CC3)cc2Cl)cc1` [Compound 12a]: < 1000 nM; for `CC(C)NC[C@H](O)COc1ccc(CC(=O)NCCNC(=O)COc2ccc(C3=NNC(=O)CC3)cc2Cl)cc1` [Compound 12b, N-(2-{2-[2-Chloro-4-(6-oxo-1,4,5,6-tetrahydropyridazin-3-yl)-phenoxy]-acetylamino}-ethyl)-2-(4-((S)-2-hydroxy-3-isopropylamino-propoxy)-phenyl]-acetamide]: < 100 nM.
Still for that read-out and setting: the value for `CC(C)(C)NC[C@H](O)COc1ccc(C(=O)NCCNC(=O)COc2ccc(C3=NNC(=O)CC3)cc2Cl)cc1` [Compound 13, 4-((S)-3-tert-Butylamino-2-hydroxy-propoxy)-N-(2-{2-[2-chloro-4-(6-oxo-1,4,5,6-tetrahydropyridazin-3-yl)-phenoxy]-acetylamino}-ethyl)-benzamide] was < 1000 nM; that for `CC(C)NCC(O)COc1ccc(CNC(=O)COc2ccc(C3=NNC(=O)CC3)cc2Cl)cc1` (stereo not shown) [Compound 17a, 2-[2-Chloro-4-(6-oxo-1,4,5,6-tetrahydro-pyridazin-3-yl)-phenoxy]-N-[4-(2-hydroxy-3-isopropylamino-propoxy)-benzyl]-acetamide] was < 1000 nM; that for `CC(C)(C)NCC(O)COc1ccc(CNC(=O)COc2ccc(C3=NNC(=O)CC3)cc2Cl)cc1` (stereo not shown) [Compound 17b, N-[4-(3-tert-Butylamino-2-hydroxy-propoxy)-benzyl]-2-[2-chloro-4-(6-oxo-1,4,5,6-tetrahydro-pyridazin-3-yl)-phenoxy]-acetamide] was < 1000 nM.
On the same count and under the same terms, the value for `CC(C)NCC(O)COc1ccc(CCNC(=O)COc2ccc(C3=NNC(=O)CC3)cc2Cl)cc1` (stereo not shown) [Compound 17c, 2-[2-Chloro-4-(6-oxo-1,4,5,6-tetrahydro-pyridazin-3-yl)-phenoxy]-N-{2-[4-(2-hydroxy-3-isopropylamino-propoxy)-phenyl]-ethyl}-acetamide] was < 100 nM.
Regarding `CC(C)(C)NCC(O)COc1ccc(CCNC(=O)COc2ccc(C3=NNC(=O)CC3)cc2Cl)cc1` (stereo not shown) [Compound 17d, N-{2-[4-(3-tert-Butylamino-2-hydroxy-propoxy)-phenyl]-ethyl}-2-[2-chloro-4-(6-oxo-1,4,5,6-tetrahydro-pyridazin-3-yl)-phenoxy]-acetamide], the IC50 in test [1] is < 100 nM. Further, the inhibition at 0.1 µM in test [2] and in test [3] was > 25% throughout.
In the case of `CC(C)(C)NC[C@H](O)COc1ccc(CCNC(=O)COc2ccc(C3=NNC(=O)CC3)cc2)cc1` [Compound 21, N-{2-[4-((S)-3-tert-butylamino-2-hydroxy-propoxy)-phenyl]-ethyl}-2-[4-(6-oxo-1,4,5,6-tetrahydro-pyridazin-3-yl)-phenoxy]-acetamide], the IC50 in test [1] is < 1000 nM. The inhibition at 0.1 µM in test [2] and in test [3] was > 25% throughout.
With `CC(C)NCC(O)COc1ccc(COCCCOc2ccc(C3=NNC(=O)CC3)cc2Cl)cc1` (stereo not shown) [Compound 31a, 6-(3-Chloro-4-{3-[4-(2-hydroxy-3-isopropylamino-propoxy)-benzyloxy]-propoxy}-phenyl)-4,5-dihydro-2H-pyridazin-3-one], in test [1], the IC50 was < 1000 nM.
Take `CC(C)(C)NCC(O)COc1ccc(COCCCOc2ccc(C3=NNC(=O)CC3)cc2Cl)cc1` (stereo not shown) [Compound 31b, 6-(4-{3-[4-(3-tert-Butylamino-2-hydroxy-propoxy)-benzyloxy]-propoxy}-3-chloro-phenyl)-4,5-dihydro-2H-pyridazin-3-one]: the IC50 in test [1] was < 100 nM. Moreover, the inhibition at 0.1 µM in test [2] and in test [3] was > 25% throughout.
`CC(C)NCC(O)COc1ccc(CCOc2ccc(C3=NNC(=O)CC3)cc2Cl)cc1` (stereo not shown) [Compound 37a, 6-(3-Chloro-4-{2-[4-(2-hydroxy-3-isopropylamino-propoxy)-phenyl]-ethoxy}-phenyl)-4,5-dihydro-2H-pyridazin-3-one]: the IC50 in test [1] is < 100 nM.
Same read-out and setting: the same measure for `CC(C)(C)NCC(O)COc1ccc(CCOc2ccc(C3=NNC(=O)CC3)cc2Cl)cc1` (stereo not shown) [Compound 37b, 6-(4-{2-[4-(3-tert-Butylamino-2-hydroxy-propoxy)-phenyl]-ethoxy}-3-chloro-phenyl)-4,5-dihydro-2H-pyridazin-3-one]: < 100 nM.
Regarding `CC(C)NC[C@H](O)COc1ccc(CCOCCCOc2ccc(C3=NNC(=O)CC3)cc2Cl)cc1` [Compound 46a, 6-[3-Chloro-4-(3-{2-[4-((S)-2-hydroxy-3-isopropylamino-propoxy)-phenyl]-ethoxy}-propoxy)-phenyl]-4,5-dihydro-2H-pyridazin-3-one], in test [1], the IC50 is < 100 nM. Also, the inhibition at 0.1 µM in test [2] and in test [3] was > 25% throughout.
As to `CC(C)(C)NC[C@H](O)COc1ccc(CCOCCCOc2ccc(C3=NNC(=O)CC3)cc2Cl)cc1` [Compound 46b, 6-[4-(3-{2-[4-((S)-3-tert-Butylamino-2-hydroxy-propoxy)-phenyl]-ethoxy}-propoxy)-3-chloro-phenyl]-4,5-dihydro-2H-pyridazin-3-one], the IC50 in test [1] was < 100 nM. The inhibition at 0.1 µM in test [2] and in test [3] was > 25% in each case.
